Data on three substances can be found in US5580852A, “Derivatives of tachyplesin having inhibitory activity towards plant pathogenic fungi” (Pioneer Hi-Bred International, Inc., priority 1993, dated 1996).

What all share (type): cell-based
The subject of one assay is Aspergillus flavus. The assay can be described thus: Antifungal testing, MIC and MCIC. The settings on record: comparison table.
For the next assay, the system named is E. coli. The settings on record: bacterial host; statement in words.
The subject of a further assay is Fusarium moniliforme. The assay can be described thus: Antifungal testing, MIC and MCIC. The settings on record: comparison table.

“KWCFRVCYRGICYRRCR [tachyplesin, natural tachyplesin, small peptide originally isolated from the hemocytes of the horseshoe crab, Tachypleus tridentatus]”: the “MIC AFL” value with Aspergillus flavus (known antimicrobial compounds) came out at 6.25 µg/mL; with Aspergillus flavus (value in parentheses), 2.8 µM. Also, the “toxicity to E. coli” value in the assay on E. coli is given as “significant toxicity”. Further, the “MIC FMO” value turned out to be 6.25 µg/mL in the assay on Fusarium moniliforme (known antimicrobial compounds) and 2.8 µM in the assay on Fusarium moniliforme (value in parentheses).

As for CMIII, the “MIC AFL” value turned out to be 60 µg/mL in the assay on Aspergillus flavus (known antimicrobial compounds) and 15 µM with Aspergillus flavus (value in parentheses). Besides, the results for the “MIC FMO” value against Fusarium moniliforme (known antimicrobial compounds) and in the assay on Fusarium moniliforme (value in parentheses) were 18.2 µg/mL and 4.6 µM, respectively.

For hordothionin, the entries for the “MIC AFL” value in the assay with Aspergillus flavus (known antimicrobial compounds) and with Aspergillus flavus (value in parentheses) were 15 µg/mL and 3 µM, respectively. The “MIC FMO” value came to 45 µg/mL in the assay on Fusarium moniliforme (known antimicrobial compounds) and 9 µM in the assay on Fusarium moniliforme (value in parentheses).
